For 57 compounds, IC50 results are on record in US20160237071A1, “T-TYPE CALCIUM CHANNEL INHIBITOR” (NISSAN CHEMICAL INDUSTRIES, LTD., priority 2013, published 2016).

In the assay the target is T1, Human T-type calcium channel (Cav 3.2) (Homo sapiens, UniProt O95180).
T1 construct: Edward Perez-Reyes, University of Virginia, USA; host or cells: HEK293
Nature of the assay: Calcium influx inhibition assay. Format: cell-based. The following applies: T-type calcium channel inhibition concentration; Cav 3.2 expressing HEK293 cells, FLIPR Calcium 4 fluorescence; read-out: C50. Here is the method: Human T-type calcium channel (Cav 3.2) expressing HEK293 cells were obtained from Prof. Edward Perez-Reyes, University of Virginia, USA. The calcium-sensitive fluorescent dye used was FLIPR Calcium 4 Assay Kit (Molecular Devices).
To a black 96-well plate with a clear bottom coated with type I collagen, the human T-type calcium channel (Cav 3.2) expressing HEK293 cells were seeded and cultured overnight, and the culture medium was removed. A solution of the calcium-sensitive fluorescent dye was added, and the whole was incubated at 37° C. in an atmosphere of 5% carbon dioxide for 30 minutes. To the plate, a diluted solution of a compound was added, and the whole was further incubated at 37° C. in an atmosphere of 5% carbon dioxide for 30 minutes. While fluorescence was continuously analyzed from the bottom with a FlexStation 3 (Molecular Devices), a calcium solution was added. […] From the rise in the fluorescence from the base line, the inhibition percentage was calculated. The logarithms of compound concentrations were plotted with respect to the inhibition activities to obtain an IC50 value (50% inhibition concentration).

T1 sequence (O95180 whole entry): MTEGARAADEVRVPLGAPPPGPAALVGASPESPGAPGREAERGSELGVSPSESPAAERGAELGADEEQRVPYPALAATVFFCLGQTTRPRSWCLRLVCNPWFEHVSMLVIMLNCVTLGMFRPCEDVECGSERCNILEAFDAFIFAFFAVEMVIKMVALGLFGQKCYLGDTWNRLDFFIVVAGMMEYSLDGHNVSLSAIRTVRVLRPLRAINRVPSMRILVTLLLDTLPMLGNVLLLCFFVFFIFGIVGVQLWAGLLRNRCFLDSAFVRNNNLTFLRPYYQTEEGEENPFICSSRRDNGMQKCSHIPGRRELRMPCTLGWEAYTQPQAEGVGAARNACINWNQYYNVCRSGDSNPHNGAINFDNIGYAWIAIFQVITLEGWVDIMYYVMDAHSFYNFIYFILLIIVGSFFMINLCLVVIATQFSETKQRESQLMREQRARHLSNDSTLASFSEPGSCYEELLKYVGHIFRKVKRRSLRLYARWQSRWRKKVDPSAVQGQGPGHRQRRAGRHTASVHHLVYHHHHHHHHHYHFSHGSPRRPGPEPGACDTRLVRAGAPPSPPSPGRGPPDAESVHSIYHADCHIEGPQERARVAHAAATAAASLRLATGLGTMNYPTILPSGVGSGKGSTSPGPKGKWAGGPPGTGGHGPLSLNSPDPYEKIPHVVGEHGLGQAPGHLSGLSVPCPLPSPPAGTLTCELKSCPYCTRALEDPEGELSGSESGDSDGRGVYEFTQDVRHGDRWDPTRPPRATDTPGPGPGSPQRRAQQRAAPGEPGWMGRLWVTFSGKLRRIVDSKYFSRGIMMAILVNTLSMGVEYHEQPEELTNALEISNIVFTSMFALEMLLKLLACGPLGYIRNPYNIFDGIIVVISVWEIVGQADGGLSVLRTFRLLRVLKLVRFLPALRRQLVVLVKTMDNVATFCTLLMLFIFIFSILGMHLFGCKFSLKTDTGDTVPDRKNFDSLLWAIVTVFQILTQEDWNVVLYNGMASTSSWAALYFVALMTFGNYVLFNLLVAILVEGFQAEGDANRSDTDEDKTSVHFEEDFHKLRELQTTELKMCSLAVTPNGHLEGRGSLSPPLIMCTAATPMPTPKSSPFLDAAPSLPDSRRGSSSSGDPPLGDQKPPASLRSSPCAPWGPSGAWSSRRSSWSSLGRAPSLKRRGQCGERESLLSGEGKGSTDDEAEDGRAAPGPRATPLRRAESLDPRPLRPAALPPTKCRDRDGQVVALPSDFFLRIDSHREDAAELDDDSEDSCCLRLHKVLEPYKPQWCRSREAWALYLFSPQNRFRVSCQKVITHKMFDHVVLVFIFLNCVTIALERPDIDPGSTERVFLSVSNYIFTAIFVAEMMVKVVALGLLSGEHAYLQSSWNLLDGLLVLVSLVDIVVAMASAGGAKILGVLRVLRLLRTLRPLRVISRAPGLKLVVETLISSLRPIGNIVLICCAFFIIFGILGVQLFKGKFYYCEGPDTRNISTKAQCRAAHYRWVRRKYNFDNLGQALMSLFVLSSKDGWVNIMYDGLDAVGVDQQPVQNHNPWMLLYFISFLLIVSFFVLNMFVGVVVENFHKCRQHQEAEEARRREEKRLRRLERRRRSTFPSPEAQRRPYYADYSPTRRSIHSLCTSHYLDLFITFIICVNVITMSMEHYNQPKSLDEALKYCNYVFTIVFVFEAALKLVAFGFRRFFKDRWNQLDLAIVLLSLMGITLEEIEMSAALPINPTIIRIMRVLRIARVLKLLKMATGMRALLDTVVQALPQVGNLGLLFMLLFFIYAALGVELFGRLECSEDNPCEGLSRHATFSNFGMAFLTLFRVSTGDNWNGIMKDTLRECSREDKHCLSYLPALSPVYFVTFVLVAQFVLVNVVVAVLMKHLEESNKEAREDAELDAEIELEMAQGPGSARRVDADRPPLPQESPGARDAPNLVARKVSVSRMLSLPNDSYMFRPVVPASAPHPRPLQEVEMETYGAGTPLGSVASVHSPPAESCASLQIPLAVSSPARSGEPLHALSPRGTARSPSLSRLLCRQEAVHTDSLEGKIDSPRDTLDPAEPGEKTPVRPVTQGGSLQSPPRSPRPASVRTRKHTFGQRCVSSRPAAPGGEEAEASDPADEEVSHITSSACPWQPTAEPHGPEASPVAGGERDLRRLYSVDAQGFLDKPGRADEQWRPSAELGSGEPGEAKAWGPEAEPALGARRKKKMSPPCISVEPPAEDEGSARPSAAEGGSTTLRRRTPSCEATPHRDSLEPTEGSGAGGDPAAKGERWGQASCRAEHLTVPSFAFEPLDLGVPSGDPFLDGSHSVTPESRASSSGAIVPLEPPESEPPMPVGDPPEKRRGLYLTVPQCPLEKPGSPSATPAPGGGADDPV

Take `COc1cccc2c1C(O)CN(c1nc(C)n(Cc3ccc(C(F)(F)F)s3)c(=O)n1)C2` (stereo not drawn) [8a]: the IC50 worked out at 0.063 µM.

For the compound `COc1ccc2c(c1)CN(c1nc(C)n(Cc3ccc(C(F)(F)F)s3)c(=O)n1)CC2O` (stereo not drawn) [8b], the IC50 was determined as 0.79 µM.

Consider `COc1ccc2c(c1)[C@@H](O)CN(c1nc(C)n(Cc3ccc(C(F)(F)F)s3)c(=O)n1)C2` [9a], for which the IC50 worked out at 0.0049 µM.

Turning to `COc1ccc2c(c1)[C@H](O)CN(c1nc(C)n(Cc3ccc(C(F)(F)F)s3)c(=O)n1)C2` [9b], the IC50 worked out at 0.13 µM.

As for `O=c1nc(N2CCc3cc(C(F)(F)F)ccc3C2)ncn1Cc1ccc(C(F)(F)F)s1` [compound 1], the IC50 was 0.062 µM.

For `COc1cc2c(cc1OC)CN(c1ncn(Cc3ccc(C(F)(F)F)s3)c(=O)n1)CC2` [compound 2], the IC50 came to 0.54 µM.

In the case of `COc1ccc2c(c1)C(O)CN(c1ncn(Cc3ccc(C(F)(F)F)s3)c(=O)n1)C2` (stereo not drawn) [compound 3], the IC50 is 0.095 µM.

`COc1ccc2c(c1)C(O)CN(c1nc(C)n(Cc3ccc(C(F)(F)F)s3)c(=O)n1)C2` (stereo not drawn) [compound 4]: the IC50 is 0.02 µM.

As to `Cc1nc(N2CCc3cc(OCC(F)(F)F)ccc3C2)nc(=O)n1Cc1cnc(C(F)(F)F)s1` [compound 5], the IC50 came to 0.32 µM.

As for `N#Cc1ccc2c(c1)CN(c1ncn(Cc3ccc(C(F)(F)F)s3)c(=O)n1)CC2` [compound 6], the IC50 was 1.8 µM.

As for `COc1ccc2c(c1)C(O)CN(c1nc(C)n(Cc3ccc(OS(=O)(=O)C(F)(F)F)nc3)c(=O)n1)C2` (stereo not drawn) [compound 10], the IC50 was 0.32 µM.

As to `O=c1nc(N2CCc3cc(OC(F)F)ccc3C2)ncn1Cc1ccc(C(F)(F)F)s1` [compound 11], the IC50 was found to be 0.034 µM.

`O=c1nc(N2CCc3cc(OS(=O)(=O)C(F)(F)F)ccc3C2)ncn1Cc1ccc(C(F)(F)F)s1` [compound 12]: the IC50 was determined as 0.054 µM.

Regarding `O=c1nc(N2CCc3cc(OCC(F)(F)F)ccc3C2)ncn1Cc1ccc(C(F)(F)F)s1` [compound 13], the IC50 was found to be 0.055 µM.

Turning to `Cc1nc(N2CCc3cc(OC(F)F)ccc3C2)nc(=O)n1Cc1ccc(C(F)(F)F)s1` [compound 14], the IC50 amounted to 0.045 µM.

In the case of `Cc1nc(N2Cc3ccc(OCC(F)(F)F)cc3C(O)C2)nc(=O)n1Cc1ccc(C(F)(F)F)s1` (stereo not drawn) [compound 15], the IC50 came out at 0.01 µM.

As for `Cc1nc(N2CCc3cc(Cl)ncc3C2)nc(=O)n1Cc1ccc(C(F)(F)F)s1` [compound 16], the IC50 is 0.65 µM.

As to `Cc1nc(N2CCc3nc(Cl)ccc3C2)nc(=O)n1Cc1ccc(C(F)(F)F)s1` [compound 17], the IC50 came to 0.35 µM.

With `CCOc1ccc2c(c1)C(O)CN(c1nc(C)n(Cc3ccc(C(F)(F)F)s3)c(=O)n1)C2` (stereo not drawn) [compound 18], the IC50 worked out at 0.018 µM.

Regarding `Cc1cc2c(s1)CCN(c1nc(C)n(Cc3ccc(C(F)(F)F)s3)c(=O)n1)C2` [compound 19], the IC50 is 0.26 µM.

Consider `Cc1nc(N2CCc3sc(CO)cc3C2)nc(=O)n1Cc1ccc(C(F)(F)F)s1` [compound 20], for which the IC50 came to 0.4 µM.

For `COc1nc2c(s1)CN(c1nc(C)n(Cc3ccc(C(F)(F)F)s3)c(=O)n1)CC2` [compound 21], the IC50 was 0.36 µM.

As for `COc1ccc2c(n1)CCN(c1nc(C)n(Cc3ccc(C(F)(F)F)s3)c(=O)n1)C2` [compound 22], the IC50 came out at 0.31 µM.

In the case of `Cc1nc(N2Cc3ccc(OCC(F)(F)F)cc3C(O)C2)nc(=O)n1Cc1cnc(C(F)(F)F)s1` (stereo not drawn) [compound 23], the IC50 is 0.34 µM.

Regarding `COc1ccc2c(c1)CCN(c1nc(C)n(Cc3cnc(C(F)(F)F)s3)c(=O)n1)C2` [compound 24], the IC50 came to 0.94 µM.

For the compound `COc1ccc2c(c1)C(O)CN(c1nc(C)n(Cc3cnc(C(F)(F)F)s3)c(=O)n1)C2` (stereo not drawn) [compound 25], the IC50 was found to be 0.45 µM.

In the case of `COc1ccc2c(c1)C(O)CN(c1nc(C)n(Cc3ccc(F)cc3)c(=O)n1)C2` (stereo not drawn) [compound 26], the IC50 turned out to be 3 µM.

Consider `CCOC(=O)C1Cc2ccccc2CN1c1nc(C)n(Cc2ccc(C(F)(F)F)s2)c(=O)n1` (stereo not drawn) [compound 27], for which the IC50 was 2.8 µM.

As for `Cc1nc(N2CCc3c(Cl)ccc(Cl)c3C2)nc(=O)n1Cc1ccc(C(F)(F)F)s1` [compound 28], the IC50 amounted to 0.32 µM.

Regarding `COc1ccc2c(c1)CCN(c1nc(C)n(Cc3ccc(C(F)(F)F)s3)c(=O)n1)CC2` [compound 29], the IC50 came out at 0.04 µM.

As to `Cc1ccc2c(n1)CCN(c1nc(C)n(Cc3ccc(C(F)(F)F)s3)c(=O)n1)C2` [compound 30], the IC50 was determined as 3.2 µM.

Consider `Cc1nc(N2CCc3nc(C4CC4)ccc3C2)nc(=O)n1Cc1ccc(C(F)(F)F)s1` [compound 31], for which the IC50 came to 0.24 µM.

Take `COc1ccc2c(c1)C(N)CN(c1nc(C)n(Cc3ccc(C(F)(F)F)s3)c(=O)n1)C2` (stereo not drawn) [compound 32]: the IC50 was found to be 0.027 µM.

`Cc1nc(N2CCc3ccccc32)nc(=O)n1Cc1ccc(C(F)(F)F)s1` [compound 34]: the IC50 turned out to be 0.75 µM.

Take `COc1ccc2c(c1)C(F)CN(c1nc(C)n(Cc3ccc(C(F)(F)F)s3)c(=O)n1)C2` (stereo not drawn) [compound 35]: the IC50 was 0.051 µM.

`COc1ccc2c(c1)C(=O)CN(c1nc(C)n(Cc3ccc(C(F)(F)F)s3)c(=O)n1)C2` [compound 36]: the IC50 came to 0.52 µM.

`COc1ccc2c(c1)/C(=N/O)CN(c1nc(C)n(Cc3ccc(C(F)(F)F)s3)c(=O)n1)C2` [compound 37]: the IC50 was found to be 0.13 µM.

For `Cc1nc(N2Cc3ccc(OC(C)C)cc3C(O)C2)nc(=O)n1Cc1ccc(C(F)(F)F)s1` (stereo not drawn) [compound 38], the IC50 amounted to 0.038 µM.

As for `Cc1nc(N2Cc3ccc(OCC(C)C)cc3C(O)C2)nc(=O)n1Cc1ccc(C(F)(F)F)s1` (stereo not drawn) [compound 39], the IC50 came to 0.075 µM.

For `Cc1nc(N2CCc3cc(OCC(F)(F)F)ccc3C2)nc(=O)n1Cc1ccc(C(F)(F)F)s1` [compound 40], the IC50 amounted to 0.25 µM.

With `Cc1nc(N2CCc3cc(OS(=O)(=O)C(F)(F)F)ccc3C2)nc(=O)n1Cc1ccc(C(F)(F)F)s1` [compound 41], the IC50 worked out at 0.05 µM.

As to `Cc1nc(N2Cc3ccc(O)cc3C(O)C2)nc(=O)n1Cc1ccc(C(F)(F)F)s1` (stereo not drawn) [compound 42], the IC50 came out at 0.29 µM.

As for `Cc1nc(N2CCc3ccc(C(F)(F)F)cc3C2)nc(=O)n1Cc1ccc(C(F)(F)F)s1` [compound 43], the IC50 turned out to be 0.32 µM.

Consider `Cc1nc(N2CCc3ccccc3C2)nc(=O)n1Cc1ccc(C(F)(F)F)s1` [compound 44], for which the IC50 turned out to be 0.32 µM.

Take `Cc1nc(N2Cc3ccc(OCC(N)=O)cc3C(O)C2)nc(=O)n1Cc1ccc(C(F)(F)F)s1` (stereo not drawn) [compound 45]: the IC50 was determined as 0.32 µM.

Turning to `Cc1nc(N2Cc3ccc(OCC(F)(F)F)cc3C2)nc(=O)n1Cc1ccc(C(F)(F)F)s1` [compound 46], the IC50 was 0.36 µM.

Turning to `Cc1nc(N2Cc3ccc(OCC4CC4)cc3C(O)C2)nc(=O)n1Cc1ccc(C(F)(F)F)s1` (stereo not drawn) [compound 47], the IC50 came out at 0.052 µM.

For `COc1ccc2c(c1)CN(c1nc(C)n(Cc3ccc(C(F)(F)F)s3)c(=O)n1)C2` [compound 48], the IC50 was found to be 1.9 µM.

As to `COc1ccc2c(c1)CCCN(c1nc(C)n(Cc3ccc(C(F)(F)F)s3)c(=O)n1)C2` [compound 49], the IC50 is 0.48 µM.

With `COc1ccc2c(c1OC)C(O)CN(c1nc(C)n(Cc3ccc(C(F)(F)F)s3)c(=O)n1)C2` (stereo not drawn) [compound 50], the IC50 was 0.41 µM.

For the compound `CCOC(=O)c1cc2c(s1)CCN(c1nc(C)n(Cc3ccc(C(F)(F)F)s3)c(=O)n1)C2` [compound 51], the IC50 worked out at 0.34 µM.

Consider `Cc1nc(N2CCc3cc(F)ccc3C2)nc(=O)n1Cc1ccc(C(F)(F)F)s1` [compound 52], for which the IC50 stood at 0.29 µM.

Regarding `Cc1nc(N2Cc3ccc(OC(F)F)cc3C(O)C2)nc(=O)n1Cc1ccc(C(F)(F)F)s1` (stereo not drawn) [compound 53], the IC50 came out at 0.018 µM.

On to `Cc1nc(N2Cc3cc4c(cc3C(O)C2)OCO4)nc(=O)n1Cc1ccc(C(F)(F)F)s1` (stereo not drawn) [compound 54], for which the IC50 stood at 0.042 µM.

With `Cc1nc(N2CCc3c([nH]c4cc(F)ccc34)C2)nc(=O)n1Cc1ccc(C(F)(F)F)s1` [compound 57], the IC50 was found to be 0.0064 µM.

On to `Cc1nc(N2CCc3c([nH]c4cc(F)ccc34)C2)nc(=O)n1Cc1cnc(C(F)(F)F)s1` [compound 58], for which the IC50 worked out at 0.052 µM.

Regarding `Cc1nc(N2CCn3c(nc4cc(F)ccc43)C2)nc(=O)n1Cc1ccc(C(F)(F)F)s1` [compound 59], the IC50 was determined as 0.27 µM.
